Test results taken from patent publication US12655116B2, “Substituted isophthalic acid diamides” (Bayer Aktiengesellschaft, priority 2020, dated 2026).

How the values were obtained:
ABUTH [1] = test: Pre-emergence herbicidal action against ABUTH; type: in vivo, Abutilon theophrasti
How it was run: (§1)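 Sandy loam pots, seeds covered with soil, then surface-treated with WP or EC formulations at 600–800 l/ha water plus 0.2% wetting agent. Greenhouse, 3 weeks. Percent damage vs untreated controls.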

SETVI [2] = test: Pre-emergence herbicidal action against SETVI; type: in vivo, Setaria viridis; settings: dosage 80 g/ha
How it was run: as §1

DIGSA [3] = test: Pre-emergence herbicidal action against DIGSA; type: in vivo, Digitaria sanguinalis
How it was run: as §1

VIOTR [4] = test: Pre-emergence herbicidal action against VIOTR; type: in vivo, Viola tricolor
How it was run: as §1

VIOTR [5] = test: Post-emergence herbicidal action against VIOTR; type: in vivo, Viola tricolor
How it was run: (§2)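 Visual % rating (0% = as untreated, 100% = dead) ~3 wk after spraying one-leaf-stage plants grown in sandy loam; WP/EC in water at 600–800 l/ha, 0.2% wetting agent.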

AMARE [6] = test: Pre-emergence herbicidal action against AMARE; type: in vivo, Amaranthus retroflexus
How it was run: as §1

ABUTH [7] = test: Post-emergence herbicidal action against ABUTH; type: in vivo, Abutilon theophrasti; settings: dosage 20 g/ha, visual assessment about 3 weeks after treatment vs untreated controls
How it was run: as §2

VERPE [8] = test: Pre-emergence herbicidal action against VERPE; type: in vivo, Veronica persica; settings: dosage 80 g/ha
How it was run: as §1

POLCO = test: Pre-emergence herbicidal action against POLCO; type: in vivo, Polygonum convolvulus
Description: Seeds of monocotyledonous and dicotyledonous weed plants and crop plants are laid out in sandy loam soil in wood-fiber pots and covered with soil. The compounds of the invention, formulated in the form of wettable powders (WP) or as emulsion concentrates (EC), are then applied to the surface of the covering soil in the form of an aqueous suspension or emulsion at a water application rate equivalent to 600 to 800 l/ha, with addition of 0.2% wetting agent. After the treatment, the pots are placed in a greenhouse and kept under good growth conditions for the trial plants. The damage to the test plants is scored visually after a test period of 3 weeks by comparison with untreated controls (herbicidal activity in percent (%): 100% activity=the plants have died, 0% activity=like control plants). […] The tables below illustrate, in an illustrative manner, the post-emergence herbicidal action of the compounds of the invention, the herbicidal activity being stated in percent.

MATIN [9] = test: Pre-emergence herbicidal action against MATIN; type: in vivo, Matricaria inodora
How it was run: as §1

ECHCG [10] = test: Pre-emergence herbicidal action against ECHCG; type: in vivo, Echinochloa crus-galli
How it was run: as §1

AMARE [11] = test: Post-emergence herbicidal action against AMARE; type: in vivo, Amaranthus retroflexus; settings: 20 g/ha, visual assessment about 3 weeks after treatment, 100% = plants have died, 0% = like control plants
How it was run: as §2

SETVI [12] = test: Post-emergence herbicidal action against SETVI; type: in vivo, Setaria viridis; settings: dosage 20 g/ha
How it was run: as §2

ECHCG [13] = test: Post-emergence herbicidal action against ECHCG; type: in vivo, Echinochloa crus-galli
How it was run: as §2

VERPE [14] = test: Post-emergence herbicidal action against VERPE; type: in vivo, Veronica persica
How it was run: as §2

PHBPU [15] = test: Pre-emergence herbicidal action against PHBPU; type: in vivo, Pharbitis purpurea; settings: dosage 80 g/ha
How it was run: as §1

MATIN [16] = test: Post-emergence herbicidal action against MATIN; type: in vivo, Matricaria inodora
How it was run: as §2

AVEFA = test: Pre-emergence herbicidal action against AVEFA; type: in vivo, Avena fatua
How it was run: as §1

DIGSA [17] = test: Post-emergence herbicidal action against DIGSA; type: in vivo, Digitaria sanguinalis; settings: 20 g/ha
How it was run: as §2

ALOMY [18] = test: Post-emergence herbicidal action against ALOMY; type: in vivo, Alopecurus myosuroides; settings: dosage 20 g/ha, visual assessment about 3 weeks after treatment vs untreated controls
How it was run: as §2

ALOMY [19] = test: Pre-emergence herbicidal action against ALOMY; type: in vivo, Alopecurus myosuroides; settings: 80 g/ha, pre-emergence, scored visually after 3 weeks vs untreated controls (100% = plants have died, 0% = like control plants)
How it was run: as §1

PHBPU [20] = test: Post-emergence herbicidal action against PHBPU; type: in vivo, Pharbitis purpurea; settings: dosage 20 g/ha
How it was run: as §2

[21] = 80 g/ha, scored visually after 3 weeks vs untreated controls (100% = plants have died, 0% = like control plants)
[22] = 20 g/ha, scored visually after 3 weeks vs untreated controls, 100% = plants have died, 0% = like control plants

CC(=O)NC(=O)c1c(C(F)(F)F)ccc(C(=O)Nc2nnnn2C)c1Cl [Example 1-337]
pest or weed control at 80 g/ha (ABUTH [1]; Abutilon theophrasti, 504 h, 80 g/ha, scored visually after 3 weeks vs untreated controls (100% = plants have died, 0% = like control plants)): 100%
pest or weed control at 80 g/ha (SETVI [2]; Setaria viridis, 504 h): 90%
pest or weed control at 80 g/ha (DIGSA [3]; Digitaria sanguinalis, 504 h, dosage 80 g/ha): 100%
pest or weed control at 20 g/ha (VIOTR [4]; Viola tricolor, 504 h, dosage 20 g/ha): 80%
pest or weed control at 80 g/ha (VIOTR [4]; Viola tricolor, 504 h, dosage 80 g/ha): 80%
pest or weed control at 20 g/ha (VIOTR [5]; Viola tricolor, 504 h, 20 g/ha): 80%
pest or weed control at 20 g/ha (AMARE [6]; Amaranthus retroflexus, 504 h, 20 g/ha, scored visually after 3 weeks vs untreated controls, 100% = plants have died, 0% = like control plants): 90%
pest or weed control at 80 g/ha (AMARE [6]; Amaranthus retroflexus, 504 h, 80 g/ha, scored visually after 3 weeks vs untreated controls, 100% = plants have died, 0% = like control plants): 100%
pest or weed control at 20 g/ha (ABUTH [7]; Abutilon theophrasti, 504 h): 80%
pest or weed control at 80 g/ha (VERPE [8]; Veronica persica, 504 h): 90%
pest or weed control at 20 g/ha (POLCO; Fallopia convolvulus, 504 h, dosage 20 g/ha): 80%
pest or weed control at 80 g/ha (POLCO; Fallopia convolvulus, 504 h, dosage 80 g/ha): 80%

Cc1nnc(NC(=O)c2ccc(C(F)F)c(C(=O)NCC(F)F)c2Br)o1 [Example 6-169]
Pre-emergence action against ABUTH (herbicidal activity) (ABUTH [1]; [21]): 90%
Pre-emergence action against MATIN in % (MATIN [9]; dosage 80 g/ha): 80%
Pre-emergence action against ECHCG in % (ECHCG [10]; 80 g/ha): 90%
Pre-emergence action against SETVI in % (SETVI [2]): 100%
Post-emergence action at 20 g/ha against AMARE in % (AMARE [11]): 90%
Pre-emergence action against DIGSA in % (DIGSA [3]; dosage 80 g/ha): 90%
Pre-emergence action against AMARE in % (AMARE [6]; [22]): 90%
Pre-emergence action against AMARE in % (AMARE [6]; [21]): 100%
Post-emergence action against SETVI in % (SETVI [12]): 90%
Post-emergence action against ECHCG in % (ECHCG [13]; dosage 5 g/ha): 80%
Post-emergence action against ECHCG in % (ECHCG [13]; dosage 20 g/ha): 90%
Pre-emergence action against POLCO in % (POLCO; dosage 80 g/ha): 100%

CC(NC(=O)c1c(C(F)(F)F)ccc(C(=O)Nc2nnnn2C)c1Cl)C1CC1 (stereo not shown) [Example 1-135]
Pre-emergence action against ABUTH (herbicidal activity) (ABUTH [1]; [21]): 100%
Pre-emergence action against ABUTH (herbicidal activity in percent) (ABUTH [1]; dosage 20 g/ha, scored visually after 3 weeks vs untreated controls, 100% = plants have died, 0% = like control plants): 100%
Pre-emergence action against MATIN in % (MATIN [9]; dosage 20 g/ha): 90%
Pre-emergence action against MATIN in % (MATIN [9]; dosage 80 g/ha): 100%
Post-emergence action against VERPE in % (VERPE [14]; 5 g/ha): 80%
Post-emergence action against VERPE in % (VERPE [14]; 20 g/ha): 90%
Pre-emergence action against ECHCG in % (ECHCG [10]; 20 g/ha): 80%
Pre-emergence action against ECHCG in % (ECHCG [10]; 80 g/ha): 100%
Pre-emergence action against PHBPU in % (PHBPU [15]): 80%
Post-emergence action against MATIN in % (MATIN [16]; dosage 5 g/ha): 80%
Post-emergence action against MATIN in % (MATIN [16]; dosage 20 g/ha): 90%
Pre-emergence action against SETVI in % (SETVI [2]): 100%
Post-emergence action at 20 g/ha against AMARE in % (AMARE [11]): 90%
Pre-emergence action against DIGSA in % (DIGSA [3]; dosage 20 g/ha): 90%
Pre-emergence action against DIGSA in % (DIGSA [3]; dosage 80 g/ha): 100%
Pre-emergence action against VIOTR in % (VIOTR [4]; dosage 80 g/ha): 100%
Post-emergence action against VIOTR in % (VIOTR [5]; 5 g/ha): 80%
Post-emergence action against VIOTR in % (VIOTR [5]; 20 g/ha): 90%
Pre-emergence action against AVEFA (AVEFA; 20 g/ha, scored visually after 3 weeks, 100% = plants have died, 0% = like control plants): 80%
Pre-emergence action against AVEFA in % (AVEFA; 80 g/ha, pre-emergence): 100%
Pre-emergence action against AMARE in % (AMARE [6]; [22]): 100%
Pre-emergence action against AMARE in % (AMARE [6]; [21]): 100%
Post-emergence action against DIGSA (DIGSA [17]): 90%
Post-emergence action against ABUTH in % (ABUTH [7]): 80%
Post-emergence action against ALOMY in % (ALOMY [18]): 90%
Post-emergence action against SETVI in % (SETVI [12]): 80%
Pre-emergence action against ALOMY (herbicidal activity) (ALOMY [19]): 90%
Post-emergence action against PHBPU in % (PHBPU [20]): 90%
Post-emergence action against ECHCG in % (ECHCG [13]; dosage 5 g/ha): 80%
Post-emergence action against ECHCG in % (ECHCG [13]; dosage 20 g/ha): 100%
Pre-emergence action against VERPE in % (VERPE [8]): 90%
